In ChEMBL document CHEMBL3098092, “Fluorescent probes of the isoxazole-dihydropyridine scaffold: MDR-1 binding and homology model” (Bioorg Med Chem Lett, 2014):

What was measured:
[1] = Drug uptake in human SH-SY5Y cells at 1 uM after 90 mins by confocal fluorescence microscopy analysis; format: ADME, cell-based; conditions: 1.5 h
[2] = Drug uptake in human SH-SY5Y cells at 10 uM after 90 mins by confocal fluorescence microscopy analysis; format: ADME, cell-based; conditions: 1.5 h
[3] = molecular target: MDR-1 (P-glycoprotein, ABCB1) (Homo sapiens, UniProt P08183); assay: Inhibition of MDR-1 (unknown origin) expressed in human Caco2 cells using Calcein-AM at 50 uM preincubated for 30 mins by fluorescence based PDSP assay relative to control; format: cell-based; conditions: Caco-2 cells expressing MDR-1, probe Calcein-AM
Sequence of MDR-1 (P-glycoprotein, ABCB1) (P08183 whole entry): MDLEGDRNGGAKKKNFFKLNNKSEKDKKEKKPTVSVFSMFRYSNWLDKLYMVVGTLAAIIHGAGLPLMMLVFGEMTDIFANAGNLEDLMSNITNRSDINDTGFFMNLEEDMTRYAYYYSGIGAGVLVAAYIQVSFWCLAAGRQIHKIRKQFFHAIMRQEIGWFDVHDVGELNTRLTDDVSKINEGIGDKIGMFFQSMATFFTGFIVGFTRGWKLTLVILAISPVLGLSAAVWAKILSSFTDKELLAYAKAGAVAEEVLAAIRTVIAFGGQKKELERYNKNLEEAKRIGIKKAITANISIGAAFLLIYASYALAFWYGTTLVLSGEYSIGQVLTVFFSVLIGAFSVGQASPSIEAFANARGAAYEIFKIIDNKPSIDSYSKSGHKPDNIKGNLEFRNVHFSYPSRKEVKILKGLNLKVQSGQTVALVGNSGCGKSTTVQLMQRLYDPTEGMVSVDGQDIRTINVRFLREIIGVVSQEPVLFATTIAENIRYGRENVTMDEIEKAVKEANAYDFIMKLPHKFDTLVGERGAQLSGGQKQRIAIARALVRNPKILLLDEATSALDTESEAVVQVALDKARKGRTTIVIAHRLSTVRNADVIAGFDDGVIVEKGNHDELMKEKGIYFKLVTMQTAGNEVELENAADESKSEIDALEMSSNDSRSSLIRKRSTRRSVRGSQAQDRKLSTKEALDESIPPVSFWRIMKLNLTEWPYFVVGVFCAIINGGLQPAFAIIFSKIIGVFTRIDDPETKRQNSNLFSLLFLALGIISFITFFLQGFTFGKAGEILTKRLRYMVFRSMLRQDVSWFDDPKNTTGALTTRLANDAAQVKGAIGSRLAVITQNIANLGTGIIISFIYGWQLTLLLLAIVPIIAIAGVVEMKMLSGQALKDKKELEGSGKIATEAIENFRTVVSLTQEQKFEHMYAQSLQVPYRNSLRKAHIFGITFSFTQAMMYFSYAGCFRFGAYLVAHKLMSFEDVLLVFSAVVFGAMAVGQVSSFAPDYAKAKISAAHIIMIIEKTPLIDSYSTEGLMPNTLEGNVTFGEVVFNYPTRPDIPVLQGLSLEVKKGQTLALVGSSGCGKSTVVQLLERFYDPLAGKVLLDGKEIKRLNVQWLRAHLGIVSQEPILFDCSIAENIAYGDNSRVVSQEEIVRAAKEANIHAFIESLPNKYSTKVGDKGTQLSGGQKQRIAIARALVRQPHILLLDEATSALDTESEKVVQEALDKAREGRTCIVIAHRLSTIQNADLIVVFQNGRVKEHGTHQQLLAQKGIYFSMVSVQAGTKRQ

With `CCOC(=O)C1=C(C)NC(C)=C(C(=O)NCCCCCCNS(=O)(=O)c2ccc(-c3c4ccc(N(CC)CC)cc4[o+]c4cc(N(CC)CC)ccc34)c(S(=O)(=O)[O-])c2)C1c1c(-c2ccccc2)noc1C` (stereo not drawn) the Drug uptake [1] was “Active”.

With `CCOC(=O)C1=C(C)NC(C)=C(C(=O)NCCCCCCCCNS(=O)(=O)c2cccc3c(N(C)C)cccc23)C1c1c(-c2ccccc2)noc1C` (stereo not drawn) the Drug uptake [2] was “Active” and the inhibition at 30 min, 50 µM [3] was 63%.
